Data set [1] has as its system Plasmodium falciparum 3D7. The experiment in a line: In vitro antimalarial image-based asexual assay, 3D7. It counts as cell-based. The following applies: for IC50: Plasmodium falciparum, 3D7, chloroquine-sensitive strain, 72 h, n = 4, read-out: Pf 3D7 IC50 ± SD; for SI for 3D7: SI = HEK293 IC50/parasite IC50. How it is done: (§1) Plasmodium falciparum 3D7 and Dd2 parasites were cultured in RPMI1640 (Life Technologies, Camarillo, CA, USA) supplemented with 2.5 mg/mL Albumax II, 5% AB human serum, 25 mM HEPES and 0.37 mM hypoxanthine. Ring-stage parasites were treated with compounds following two rounds of sorbitol synchronisation as previously described. Artesunate, pyrimethamine and puromycin were incorporated as controls. Following incubation of assay plates for 72 h at 37 °C, and 5% CO2 and 5% O2, parasites were stained with 2-(4-amidinophenyl)-1H-indole-6-carboxamidine (DAPI) and imaged using an Opera QEHS confocal imaging system (PerkinElmer, Waltham, MA, USA). Images were analysed as previously described using Acapella spot detection software (PerkinElmer, Waltham, MA, USA).

Data set [2] relates to Plasmodium falciparum Dd2. In words: In vitro antimalarial image-based asexual assay, Dd2. The following applies: for IC50: Plasmodium falciparum, DD2, 72 h, n = 4, read-out: Pf Dd2 IC50 ± SD; for SI for Dd2: SI = HEK293 IC50/parasite IC50. The class given is cell-based. How it is done: as §1
Data set [3] has as its system HEK293 cells. The experiment in a line: In vitro cytotoxicity assay (Alamar Blue). It counts as cell-based, human. The following applies: for IC50: HEK293, 72 h, n = 2. How it is done: Human embryonic kidney cells (HEK293) were maintained in DMEM (Life Technologies, Camarillo, CA, USA) containing 10% FBS (Hyclone™ ThermoFisher, Melbourne, Australia). Cytotoxicity testing was undertaken as previously described. In brief, 5 μL of test compound was added/well of black/clear tissue culture treated 384-well plates containing 3000 adherent HEK293 cells/well in 45 μL and incubated 72 h at 37 °C in 5% CO2. After incubation, the supernatant was removed and replaced with 40 μL of 10% Alamar Blue per well. Plates were incubated for 5–6 h and measured for fluorescence at 530 nm excitation and 595 nm emission. The % inhibition was calculated using 0.4% DMSO (no inhibition) and 5 μM puromycin (100% inhibition) data. IC50 values were obtained by plotting % inhibition against log dose using GraphPad Prism v.6 (San Diego, CA, USA), nonlinear regression with a variable slope plot.

Data set [4] deals with HEK293 cells. More on the design: method as in PMID 24032556. The following applies: cited from earlier work.
Data set [5] concerns Plasmodium falciparum Dd2. More on the design: method as in PMID 24032556. The settings on record: cited from earlier work; for IC50: drug-resistant strain, read-out: IC50 Pf (Dd2).
Data set [6] relates to Plasmodium falciparum 3D7. More on the design: method as in PMID 24032556. The following applies: cited from earlier work; for IC50: drug-sensitive strain, read-out: IC50 Pf (3D7).
The mark [7] stands for this setting: controls, drug-resistant strain.
The mark [8] stands for this setting: Homo sapiens, controls, read-out: HEK293 IC50 ± SD.
The mark [9] stands for this setting: chloroquine, pyrimethamine and mefloquine drug-resistant strain, mean ± SD.
[10] abbreviates: human embryonic kidney cells, mean ± SD.
Where [11] appears, read: N-Boc group of compound 7 removed.
Setting [12] is: bromine at C-2 replaced with iodine.

Results on 17 compounds are retold here after paper PMC10221708, “Synthesis and Antimalarial Evaluation of Halogenated Analogues of Thiaplakortone A” (Marine Drugs, 2023).

Usually IC50 stands for the concentration needed to halve the response being measured.

Molecules are shown by their SMILES. “Also recorded” adds a separate entry of the source. Like-named read-outs stand apart in the source and are kept apart here.

As for `C[C@H]1[C@H](OC(=O)CCC(=O)O)O[C@@H]2O[C@@]3(C)CC[C@H]4[C@H](C)CC[C@@H]1[C@@]24OO3` [Artesunate, reference compound], the values for the IC50 in data set [1] (controls), in data set [2] (setting [7]) and in data set [3] (setting [8]) were 0.00049 ± 0.0002 µM, 0.00038 ± 1e-05 µM and greater than 4 µM, respectively. Also, in data set [1], the “SI for 3D7” value was greater than 8163. For the same compound, the “SI for Dd2” value in data set [2] is >10,526.
As for `NCCc1c[nH]c2c1C(=O)C1=C(NC=CS1(=O)=O)C2=O` [Compound 1, thiaplakortone A], the 50% inhibitory concentration (IC50) in data set [1] (mean ± SD) was 0.061 ± 0.009 µM; in data set [5] it was 0.0066 µM; in data set [6], 0.051 µM; in data set [2] (setting [9]), 0.008 ± 0.001 µM; in data set [3] (setting [10]), 1.32 ± 0.092 µM. In addition, in data set [1], the “SI for 3D7” value turned out to be 22. In addition, in data set [4], the “cytotoxicity against HEK293 cells” value is on record as “low cytotoxicity”. The “selectivity index against Dd2” value in data set [5] (HEK293 vs Dd2) is on record as 591. For the same compound, the “selectivity index against 3D7” value in data set [6] (HEK293 vs 3D7) is listed as 76. Also, the “SI for Dd2” value in data set [2] was found to be 150.
Turning to `CC(C)(C)OC(=O)NCCc1c[nH]c2c1C(=O)C1=C(NC=CS1(=O)=O)C2=O` [Compound 2, Boc-protected thiaplakortone A], the half-maximal inhibitory concentration (IC50) amounted to 0.227 ± 0.044 µM in data set [1] (mean ± SD), 0.086 ± 0.012 µM in data set [2] (setting [9]) and 5.53 ± 0.021 µM in data set [3] (setting [10]). The “SI for 3D7” value in data set [1] was 24. In addition, the “SI for Dd2” value in data set [2] was 64.
The like results for `CC(C)(C)OC(=O)NCCc1c[nH]c2c1C(=O)C1=C(NC=C(Br)S1(=O)=O)C2=O` [Compound 3] were, in that order, 3.52 ± 0.35 µM, 0.583 ± 0.094 µM, greater than 80 µM, greater than 23 and greater than 137.
With `CC(C)(C)OC(=O)NCCc1c(Br)[nH]c2c1C(=O)C1=C(NC=C(Br)S1(=O)=O)C2=O` [Compound 4], the 50% inhibitory concentration (IC50) was 1.37 ± 0.117 µM in data set [1] (mean ± SD), 2.06 ± 0.192 µM in data set [2] (setting [9]) and greater than 80 µM in data set [3] (setting [10]). For the same compound, the “SI for 3D7” value in data set [1] is recorded as greater than 58. In addition, the “fold decrease in antimalarial activity against 3D7 upon removal of the Boc group” value in data set [1] (compound 4 after Boc removal) came out at 1.2 fold. Also, in data set [2], the “SI for Dd2” value was greater than 39.
In the case of `NCCc1c[nH]c2c1C(=O)C1=C(NC=C(Br)S1(=O)=O)C2=O` [Compound 5], the half-inhibitory concentration (IC50) in data set [1] (mean ± SD) is 0.559 ± 0.145 µM; in data set [2] (setting [9]), 0.058 ± 0.016 µM; in data set [3] (setting [10]), greater than 80 µM. Also, the “SI for 3D7” value in data set [1] is greater than 143. Moreover, the “SI for Dd2” value in data set [2] is listed as greater than 1379. Besides, the “cytotoxicity against HEK293 cells observed at 80 μM” value in data set [3] (80 μM (top screening concentration)) is on record as “minimal cytotoxicity; also recorded: minimal toxicity”.
Consider `NCCc1c(Br)[nH]c2c1C(=O)C1=C(NC=C(Br)S1(=O)=O)C2=O` [Compound 6], for which the IC50 is 1.65 ± 0.194 µM in data set [1] (mean ± SD), 0.487 ± 0.098 µM in data set [2] (setting [9]) and greater than 80 µM in data set [3] (setting [10]). In data set [1], the “SI for 3D7” value is recorded as greater than 48. Also, in data set [2], the “SI for Dd2” value was greater than 164.
The corresponding values for `CC(C)(C)OC(=O)NCCc1c[nH]c2c1C(=O)C1=C(NC=C(I)S1(=O)=O)C2=O` [Compound 7] are 5.62 ± 0.383 µM, 1.19 ± 0.27 µM, greater than 80 µM, greater than 14 and greater than 67.
The like results for `CC(C)(C)OC(=O)NCCc1c(I)[nH]c2c1C(=O)C1=C(NC=C(I)S1(=O)=O)C2=O` [Compound 8] were, in that order, 1.62 ± 0.154 µM, 0.659 ± 0.119 µM, greater than 80 µM, greater than 49 and greater than 121.
On to `NCCc1c[nH]c2c1C(=O)C1=C(NC=C(I)S1(=O)=O)C2=O` [Compound 9], for which the “fold increase of antimalarial activity against 3D7 versus compound 7” value in data set [1] (setting [11]) was found to be 2.5 fold. Also, the half-maximal inhibitory concentration (IC50) in data set [1] (mean ± SD) was 2.22 ± 0.248 µM; in data set [2] (setting [9]), 0.317 ± 0.008 µM; in data set [3] (setting [10]), greater than 80 µM. Also, the “SI for 3D7” value in data set [1] was greater than 36. Also, the “fold reduction of antimalarial activity against 3D7 versus compound 5” value in data set [1] (setting [12]) was found to be 3.9 fold. In data set [2] (setting [11]), the “fold increase of antimalarial activity against Dd2 versus compound 7” value is 3.7 fold. Also, in data set [2], the “SI for Dd2” value is greater than 252. The “fold reduction of antimalarial activity against Dd2 versus compound 5” value in data set [2] (setting [12]) was 5.5 fold.
`NCCc1c(I)[nH]c2c1C(=O)C1=C(NC=C(I)S1(=O)=O)C2=O` [Compound 10]: the figures for the IC50 in data set [1] (mean ± SD), in data set [2] (setting [9]) and in data set [3] (setting [10]) were 1.69 ± 0.316 µM, 0.725 ± 0.244 µM and greater than 80 µM, respectively. Moreover, the “SI for 3D7” value in data set [1] was greater than 47. The “SI for Dd2” value in data set [2] is on record as greater than 110.
Turning to `NCCc1c(C(F)(F)F)[nH]c2c1C(=O)C1=C(NC=C(C(F)(F)F)S1(=O)=O)C2=O` [Compound 11], the values for the half-inhibitory concentration (IC50) in data set [1] (mean ± SD), in data set [2] (setting [9]) and in data set [3] (setting [10]) were 6.8 ± 2.44 µM, 4.55 ± 1.15 µM and greater than 80 µM, respectively. Besides, the “SI for 3D7” value in data set [1] is greater than 12. In addition, in data set [2], the “SI for Dd2” value is on record as greater than 18.
For `COc1ccc(C[C@H](N)C(=O)N[C@H]2[C@@H](O)[C@H](n3cnc4c(N(C)C)ncnc43)O[C@@H]2CO)cc1` [Puromycin, reference compound], the half-inhibitory concentration (IC50) in data set [1] (controls) came out at 0.0319 ± 0.0162 µM; in data set [2] (setting [7]), 0.017 ± 0.00396 µM; in data set [3] (setting [8]), 1.04 ± 0.066 µM. Besides, in data set [1], the “SI for 3D7” value is reported as 33. Moreover, in data set [2], the “SI for Dd2” value turned out to be 61.
In the case of `CCc1nc(N)nc(N)c1-c1ccc(Cl)cc1` [Pyrimethamine, reference compound], the figures for the IC50 in data set [1] (controls), in data set [2] (setting [7]) and in data set [3] (setting [8]) were 0.00375 ± 0.0003 µM, greater than 40 µM and greater than 40 µM, respectively. Also, the “SI for 3D7” value in data set [1] was >10,666.
For the compound `NCCc1c[nH]c2c1C(=O)C1=C(NCCS1(=O)=O)C2=O` [Thiaplakortone B], the IC50 is 0.092 µM in data set [5] and 0.65 µM in data set [6].
On to `CN[C@@H](Cc1c[nH]c2c1C(=O)C1=C(NC=CS1(=O)=O)C2=O)C(=O)O` [Thiaplakortone C], for which the IC50 in data set [5] is 0.17 µM; in data set [6], 0.31 µM.
Regarding `CN[C@@H](Cc1c[nH]c2c1C(=O)C1=C(C2=O)S(=O)(=O)C=CN1)C(=O)O` [Thiaplakortone D], the half-inhibitory concentration (IC50) in data set [5] was 0.16 µM; in data set [6] it was 0.28 µM.
